Source: patent US11174251B2, “Compositions and methods for inhibition of the JAK pathway” (Rigel Pharmaceuticals, Inc., priority 2010, dated 2021)
Counter-ions that a name gives are not always drawn.

Biological target: T1, JAK3 (Homo sapiens, UniProt P52333)
T1 construct: The Ramos B-cell line was acquired from ATCC (ATCC Catalog No. CRL-1596); host or cells: Ramos B-cell line (human)
T1 sequence (P52333 1-1124): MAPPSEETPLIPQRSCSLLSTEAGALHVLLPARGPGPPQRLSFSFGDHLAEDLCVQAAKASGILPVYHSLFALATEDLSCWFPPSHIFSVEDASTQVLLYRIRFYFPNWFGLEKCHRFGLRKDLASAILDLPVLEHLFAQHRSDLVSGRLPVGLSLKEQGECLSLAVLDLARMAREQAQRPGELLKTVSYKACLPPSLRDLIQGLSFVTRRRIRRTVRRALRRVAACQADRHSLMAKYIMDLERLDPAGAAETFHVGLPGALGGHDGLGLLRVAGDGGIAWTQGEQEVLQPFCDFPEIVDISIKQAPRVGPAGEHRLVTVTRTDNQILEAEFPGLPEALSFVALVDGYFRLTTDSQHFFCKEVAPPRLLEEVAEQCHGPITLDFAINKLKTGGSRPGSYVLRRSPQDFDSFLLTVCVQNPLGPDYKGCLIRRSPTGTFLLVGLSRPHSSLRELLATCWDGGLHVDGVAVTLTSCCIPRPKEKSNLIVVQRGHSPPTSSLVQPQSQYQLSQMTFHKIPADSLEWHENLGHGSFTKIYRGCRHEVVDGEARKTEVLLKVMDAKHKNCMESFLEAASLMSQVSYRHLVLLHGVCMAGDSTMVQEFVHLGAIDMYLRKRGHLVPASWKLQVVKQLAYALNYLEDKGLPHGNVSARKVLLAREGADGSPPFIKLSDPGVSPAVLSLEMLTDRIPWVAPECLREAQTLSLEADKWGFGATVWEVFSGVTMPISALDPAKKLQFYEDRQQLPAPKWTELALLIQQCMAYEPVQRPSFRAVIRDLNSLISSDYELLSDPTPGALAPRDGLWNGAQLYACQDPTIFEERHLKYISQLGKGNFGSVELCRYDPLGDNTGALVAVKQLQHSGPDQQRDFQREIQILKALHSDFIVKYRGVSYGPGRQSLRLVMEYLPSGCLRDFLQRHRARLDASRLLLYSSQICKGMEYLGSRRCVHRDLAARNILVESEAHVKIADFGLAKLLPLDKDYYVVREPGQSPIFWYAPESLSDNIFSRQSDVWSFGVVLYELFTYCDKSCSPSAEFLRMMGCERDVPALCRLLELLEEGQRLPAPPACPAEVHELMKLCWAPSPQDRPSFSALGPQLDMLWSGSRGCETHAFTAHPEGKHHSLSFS
Assay: Assay for CD23 expression on Ramos B-cells stimulated by IL-4 (Table IV: ability to inhibit JAK3 activity)
Assay type: cell-based
Settings: tested under conditions described in Example 3 (so in the source)
How it was run: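 Human Ramos B cells in RPMI with 5% serum, pre-incubated 1 h at 37 °C with compound or DMSO, then stimulated with IL-4 (final 50 units/mL) for 20–24 h. Surface CD23 upregulation measured by FACS staining as readout of JAK1/JAK3–Stat-6 signalling.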

IC50 [nM] | SMILES
< 500 | Cc1cc(Nc2ncc(Cl)c(Nc3ccc4oc(=O)[nH]c4c3)n2)cc(N(C)C)c1C [Compound I-83, 5-(5-chloro-2-(3-(dimethylamino)-4,5-dimethylphenylamino)pyrimidin-4-ylamino)benzo[d]oxazol-2(3H)-one trifluoroacetate salt]
500 to 5000 | Cc1cc(Nc2ncc(CN3CCN(C)CC3)c(Nc3ccc4oc(=O)[nH]c4c3)n2)cc(C)c1C [Compound I-100, 5-(2-(3,4,5-trimethylphenylamino)-5-((4-methylpiperazin-1-yl)methyl)pyrimidin-4-ylamino)benzo[d]oxazol-2(3H)-one]
< 500 | COc1cc(Nc2ncc(F)c(Nc3ccc4oc(=O)[nH]c4c3)n2)cc(C(F)(F)F)c1 [Compound I-211, 5-fluoro-N2-(3-methoxy-5-trifluoromethyl)phenyl-N4-(2-oxo-2,3-dihydro-1,3-benzoxazol-5-yl)-2,4-pyrimidinediamine]
< 500 | COc1cc(Nc2ncc(C)c(Nc3ccc4oc(=O)n(C)c4c3)n2)cc(C)c1C [Compound I-125, 5-(2-(3-methoxy-4,5-dimethylphenylamino)-5-methylpyrimidin-4-ylamino)-3-methylbenzo[d]oxazol-2(3H)-one trifluoroacetate salt]
< 500 | C=Cc1cccc(Nc2ncc(C)c(Nc3ccc4oc(=O)[nH]c4c3)n2)c1 [Compound I-65, 5-[5-Methyl-2-(3-vinyl-phenylamino)-pyrimidin-4-ylamino]-3H-benzooxazol-2-one trifluoroacetate salt]
< 500 | CCOc1ccc(Nc2ncc(C)c(Nc3ccc4oc(=O)[nH]c4c3)n2)c(F)c1OCC [Compound I-101, 5-(2-(3,4-diethoxy-2-fluorophenylamino)-5-methylpyrimidin-4-ylamino)benzo[d]oxazol-2(3H)-one]
500 to 5000 | COc1cccc(Nc2ncc(F)c(Nc3ccc4oc(=O)[nH]c4c3)n2)c1F [Compound I-20, 5-(5-fluoro-2-(2-fluoro-3-methoxyphenylamino)pyrimidin-4-ylamino)benzo[d]oxazol-2(3H)-one trifluoroacetate salt]
> 10000 | Cc1cnc(Nc2cc(C)c(C)c(C)c2)nc1Nc1ccc2oc(=O)n(COP(=O)(OCCN(C)C)OCCN(C)C)c2c1 [Compound I-134, N4-{3-bis[2-(N,N-dimethylamino)ethoxy]phosphinyloxymethyl-2-oxo-2,3-dihydro-1,3-benzoxazol-5-yl}-5-methyl-N2-(3,4,5-trimethyl)phenyl-2,4-pyrimidinediamine]
< 500 | Cc1cnc(Nc2ccc(C)c3c2COC3=O)nc1Nc1ccc2oc(=O)[nH]c2c1 [II-12, 5-methyl-N4-(2-oxo-2,3-dihydro-1,3-benzoxazol-5-yl)-N2-(1-oxo-1,3-dihydro-7-methylisobenzofuran-4-yl)-2,4-pyrimidinediamine]
> 10000 | [2H]C([2H])([2H])c1c(C)cc(Nc2ncc(F)c(Nc3ccc4oc(=O)[nH]c4c3)n2)cc1C [Compound I-37, 5-(5-fluoro-2-(3,5-dimethyl-4-d3-methyl)phenylamino)pyrimidin-4-ylamino)benzo[d]oxazol-2(3H)-one trifluoroacetate salt]
< 500 | CCNc1cc(Nc2ncc(Cl)c(Nc3ccc4oc(=O)[nH]c4c3)n2)cc(C)c1C [Compound I-87, 5-(5-chloro-2-(3-(ethylamino)-4,5-dimethylphenylamino)pyrimidin-4-ylamino)benzo[d]oxazol-2(3H)-one formate salt]
> 10000 | Cc1cnc(Nc2cc(C)c(C)c(C)c2)nc1Nc1cc(-c2ccc3c(c2)OCO3)c2oc(=O)[nH]c2c1 [Compound I-88, 5-(2-(3,4,5-trimethylphenylamino)-5-methylpyrimidin-4-ylamino)-7-(benzo[d][1,3]dioxol-6-yl)benzo[d]oxazol-2(3H)-one]
5000 to 10000 | Cc1ccc(Nc2ncc(C)c(Nc3ccc4oc(=O)[nH]c4c3)n2)cc1C(=O)O [Compound I-152, N2-(3-carboxy-4-methyl)phenyl-5-methyl-N4-(2-oxo-2,3-dihydro-1,3-benzoxazol-5-yl)-2,4-pyrimidinediamine]
500 to 5000 | COc1cccc(Nc2nccc(Nc3ccc4oc(=O)[nH]c4c3)n2)c1F [Compound I-23, 5-(2-(2-fluoro-3-methoxyphenylamino)pyrimidin-4-ylamino)benzo[d]oxazol-2(3H)-one]
< 500 | Cc1cnc(Nc2cccc(N(C)C)c2)nc1Nc1ccc2oc(=O)[nH]c2c1 [Compound I-24, 5-[2-(3-Dimethylamino-phenylamino)-5-methyl-pyrimidin-4-ylamino]-3H-benzooxazol-2-one trifluoroacetate salt]
< 500 | COc1cc(Nc2ncc(F)c(Nc3cc(F)c4oc(=O)[nH]c4c3)n2)cc(C)c1F [Compound I-191, 5-(2-(4-fluoro-3-methoxy-5-methylphenylamino)-5-fluoropyrimidin-4-ylamino)-7-fluorobenzo[d]oxazol-2(3H)-one trifluoroacetate salt]
< 500 | O=C1NCC=Cc2cc(Nc3ncc(F)c(Nc4ccc5oc(=O)[nH]c5c4)n3)ccc21 [II-23, 5-(5-fluoro-2-(1-oxo-2,3-dihydro-1H-benzo[c]azepin-7-ylamino)pyrimidin-4-ylamino)benzo[d]oxazol-2(3H)-one formate salt]
< 500 | Cc1cnc(Nc2cc(C)c(Br)c(C)c2)nc1Nc1ccc2oc(=O)[nH]c2c1 [Compound I-149, N2-(4-bromo-3,5-dimethyl)phenyl-5-methyl-N4-(2-oxo-2,3-dihydro-1,3-benzoxazol-5-yl)-2,4-pyrimidinediamine]
< 500 | Cc1cnc(Nc2cc(C)c(CO)c(C)c2)nc1Nc1ccc2oc(=O)[nH]c2c1 [Compound I-142, N2-(3,5-dimethyl-4-hydroxymethyl)phenyl-5-methyl-N4-(2-oxo-2,3-dihydro-1,3-benzoxazol-5-yl)-2,4-pyrimidinediamine]
> 10000 | COc1cc(Nc2ncc(F)c(Nc3ccc4oc(=O)[nH]c4c3)n2)ccc1-c1ccncc1 [Compound I-207, 5-(2-(3-methoxy-4-(pyridin-4-yl)phenylamino)-5-fluoropyrimidin-4-ylamino)benzo[d]oxazol-2(3H)-one formate salt]
< 500 | Cc1ccc(Nc2ncc(F)c(Nc3ccc4oc(=O)[nH]c4c3)n2)cc1S(C)(=O)=O [Compound I-167, 5-(2-(4-methyl-3-(methylsulfonyl)phenylamino)-5-fluoropyrimidin-4-ylamino)benzo[d]oxazol-2(3H)-one trifluoroacetate salt]
> 10000 | COC(=O)c1cnc(Nc2ccc(C)c(N(C)C)c2)nc1Nc1ccc2oc(=O)[nH]c2c1 [Compound I-57, 2-(3-Dimethylamino-4-methyl-phenylamino)-4-(2-oxo-2,3-dihydro-benzooxazol-5-ylamino)-pyrimidine-5-carboxylic acid methyl ester trifluoroacetate salt]
< 500 | CC(NC1CC1)c1ccc(Nc2ncc(F)c(Nc3ccc4oc(=O)[nH]c4c3)n2)cc1 (centres unmarked) [Compound I-158, 5-(2-(4-(1-(cyclopropylamino)ethyl)phenylamino)-5-fluoropyrimidin-4-ylamino)benzo[d]oxazol-2(3H)-one formate salt]
500 to 5000 | COc1cc(Nc2ncc(F)c(Nc3ccc4oc(=O)[nH]c4c3)n2)cc(OC)c1C [Compound I-194, 5-(2-(3,5-dimethoxy-4-methylphenylamino)-5-fluoropyrimidin-4-ylamino)benzo[d]oxazol-2(3H)-one trifluoroacetate salt]
< 500 | Cc1cnc(Nc2cc(C)c(F)c(CO)c2)nc1Nc1ccc2oc(=O)[nH]c2c1 [Compound I-154, N2-(4-fluoro-3-hydroxymethyl-5-methyl)phenyl-5-methyl-N4-(2-oxo-2,3-dihydro-1,3-benzoxazol-5-yl)-2,4-pyrimidinediamine]

SMILES | IC50 [nM]
COc1cc(Nc2ncc([N+](=O)[O-])c(Nc3ccc4oc(=O)[nH]c4c3)n2)ccc1C [Compound I-44, 5-(2-(3-methoxy-4-methylphenylamino)-5-nitropyrimidin-4-ylamino)benzo[d]oxazol-2(3H)-one trifluoroacetate salt] | > 10000
